Laboratory results from PMC12669672, “Structural insights into selective and dual antagonism of EP2 and EP4 prostaglandin receptors” (The EMBO Journal, 2025).
Values joined by “and” are separate entries in the source; they are usually repeats but may differ in a detail not shown here. Equal values may be shown once. Read-outs that look alike come from different tables or passages of the source.

Key:
Assay in all cases: GloSensor cAMP assay, antagonism of PGE2-induced cAMP
Assay type in all cases: cell-based
[1] = biological target: T1, EP2 S308A (Homo sapiens, UniProt P43116, S308A); conditions: for cAMP activity (∆pIC50 from EP2 WT): TG6-129, S308A
T1 construct: The full-length EP2 or EP4 was cloned into the pcDNA3.1 vector; FLAG (N); expressed in transfected cells; host or cells: AD293 cells
T1 sequence (P43116 whole entry S308A): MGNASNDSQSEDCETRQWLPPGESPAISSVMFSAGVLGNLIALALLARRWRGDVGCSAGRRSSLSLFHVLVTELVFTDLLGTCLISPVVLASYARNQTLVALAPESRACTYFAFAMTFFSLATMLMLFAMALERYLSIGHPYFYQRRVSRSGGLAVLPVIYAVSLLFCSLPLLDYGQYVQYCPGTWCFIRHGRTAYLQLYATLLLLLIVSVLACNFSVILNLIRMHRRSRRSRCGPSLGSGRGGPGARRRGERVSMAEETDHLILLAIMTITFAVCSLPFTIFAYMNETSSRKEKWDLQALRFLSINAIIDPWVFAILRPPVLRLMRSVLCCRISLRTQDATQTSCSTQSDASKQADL
Experimental: (§1) The full-length EP2 or EP4 was cloned into the pcDNA3.1 vector (Invitrogen), incorporating an N-terminal FLAG tag. AD293 cells were seeded in six-well plates containing DMEM supplemented with 10% dialyzed FBS 1 day prior to transfection. Following overnight growth, cells were transfected with a 1:1 ratio of receptor construct and GloSensor22F cAMP biosensor (Promega) plasmids.
(§2) Twenty-four hours post-transfection, the cells were transferred to CO2-independent media containing 2% GloSensor cAMP Reagent (Promega) and distributed into 384-well assay plates at a density of 4000 cells per well in 10 μL. […] The plates were then incubated at 37 °C for an additional hour before luminescence measurements were taken using an EnVision plate reader.
(§3) Data analysis was performed using GraphPad Prism software v8.0.1. A nonlinear regression analysis, employing a sigmoidal dose–response model, was conducted to determine the Emax values and half-maximum inhibitory concentrations (IC50) for each compound tested.

[2] = biological target: T2, EP2 S86A (Homo sapiens, UniProt P43116, S86A); conditions: for cAMP activity (∆pIC50 from EP2 WT): TG6-129, S86A
T2 construct: The full-length EP2 or EP4 was cloned into the pcDNA3.1 vector; FLAG (N); expressed in transfected cells; host or cells: AD293 cells
T2 sequence (P43116 whole entry S86A): as the sequence (P43116 whole entry S308A) above, with S86A, A308S counted along it
Experimental: as §1, §2, §3

[3] = biological target: T3, EP2 W186A (Homo sapiens, UniProt P43116, W186A)
T3 construct: The full-length EP2 or EP4 was cloned into the pcDNA3.1 vector; FLAG (N); expressed in transfected cells; host or cells: AD293 cells
T3 sequence (P43116 whole entry W186A): as the sequence (P43116 whole entry S308A) above, with W186A, A308S counted along it
Experimental: as §1, §2, §3

[4] = biological target: T4, EP4 WT (Homo sapiens, UniProt P35408); conditions: for remaining activity at 100 µM / remaining activity at […] / remaining activity at 0.1585 µM / remaining activity at 0.03236 µM / remaining activity at 0.006457 µM / remaining activity at 0.001288 µM: 1 h
T4 construct: The full-length EP2 or EP4 was cloned into the pcDNA3.1 vector; FLAG (N); expressed in transfected cells; host or cells: AD293 cells
T4 sequence (P35408 whole entry): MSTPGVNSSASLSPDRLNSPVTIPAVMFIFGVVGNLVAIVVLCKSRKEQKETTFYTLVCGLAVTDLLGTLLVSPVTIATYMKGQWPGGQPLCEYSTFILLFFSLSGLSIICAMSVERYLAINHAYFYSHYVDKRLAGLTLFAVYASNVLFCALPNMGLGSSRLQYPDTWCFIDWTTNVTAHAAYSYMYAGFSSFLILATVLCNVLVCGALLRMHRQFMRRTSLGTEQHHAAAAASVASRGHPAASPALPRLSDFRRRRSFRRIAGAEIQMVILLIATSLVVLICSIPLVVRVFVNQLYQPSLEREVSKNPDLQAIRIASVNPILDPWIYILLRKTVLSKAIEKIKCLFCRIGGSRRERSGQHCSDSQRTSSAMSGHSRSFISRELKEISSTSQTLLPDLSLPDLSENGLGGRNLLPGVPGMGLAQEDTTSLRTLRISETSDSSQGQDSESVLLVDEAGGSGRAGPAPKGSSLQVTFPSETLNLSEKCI
Experimental: as §1, §2, §3

[5] = biological target: T5, EP2 S305A (Homo sapiens, UniProt P43116, S305A); conditions: for cAMP activity (∆pIC50 from EP2 WT): TG6-129, S305A
T5 construct: The full-length EP2 or EP4 was cloned into the pcDNA3.1 vector; FLAG (N); expressed in transfected cells; host or cells: AD293 cells
T5 sequence (P43116 whole entry S305A): as the sequence (P43116 whole entry S308A) above, with S305A, A308S counted along it
Experimental: as §1, §2, §3

[6] = biological target: T6, EP4 V320A (Homo sapiens, UniProt P35408, V320A); conditions: for cAMP activity (∆pIC50 from EP4 WT): TG6-129, V320A
T6 construct: The full-length EP2 or EP4 was cloned into the pcDNA3.1 vector (Invitrogen), incorporating an N-terminal FLAG tag; expressed in transfected cells; host or cells: AD293
T6 sequence (P35408 whole entry V320A): as the sequence (P35408 whole entry) above, with V320A counted along it
Experimental: as §1, §2, §3

[7] = 1 h, TG6-129 log([M]) -7, read-out: % cAMP activity (normalized to WT)
[8] = 1 h, TG6-129 log([M]) -10, read-out: % cAMP activity (normalized to WT)
[9] = 1 h, TG6-129 log([M]) -11, read-out: % cAMP activity (normalized to WT)
[10] = 1 h, TG6-129 log([M]) -8, read-out: % cAMP activity (normalized to WT)
[11] = 1 h, TG6-129 log([M]) -12, read-out: % cAMP activity (normalized to WT)
[12] = 1 h, TG6-129 log([M]) -6, read-out: % cAMP activity (normalized to WT)
[13] = 1 h, TG6-129 log([M]) -9, read-out: % cAMP activity (normalized to WT)

remaining activity at 0.1 µM [1, 7]: 80.3%
remaining activity at 0.0001 µM [1, 8]: 108%
remaining activity at 10 pM [1, 9]: 110%
cAMP activity (∆pIC50 from EP2 WT) ([1]; Mean): -0.534
cAMP activity (∆pIC50 from EP2 WT) ([1]; single experiments 1st-3rd): -0.496 and -0.568 and -0.537
IC50 [2]: 339 nM
remaining activity at 0.01 µM [2, 10]: 39.3%
remaining activity at 0.0001 µM [2, 8]: 51.4%
remaining activity at 1 pM [2, 11]: 49.3%
cAMP activity (∆pIC50 from EP2 WT) ([2]; Mean): -0.714
cAMP activity (∆pIC50 from EP2 WT) ([2]; single experiments 1st-3rd): -0.638 and -0.681 and -0.823
IC50 [3]: 2000 nM
remaining activity at 1 µM [3, 12]: 12.3%
remaining activity at 0.1 µM [3, 7]: 14.9%
remaining activity at 0.01 µM [3, 10]: 13.9%
remaining activity at 0.001 µM [3, 13]: 12.1%
remaining activity at 0.0001 µM [3, 8]: 12.9%
remaining activity at 10 pM [3, 9]: 15.2%
remaining activity at 1 pM [3, 11]: 12.4%
cAMP activity (∆pIC50 from EP2 WT) ([3]; TG6-129, W186A, Mean): -1.790
remaining activity at 100 µM ([4]; TG6-129 log([M]) -4.00, read-out: % cAMP activity (normalized to WT)): 15.1%
remaining activity at […] ([4]; TG6-129 log([M]) -4.70, read-out: % cAMP activity (normalized to WT)): 25.9%
remaining activity at […] ([4]; TG6-129 log([M]) -5.40, read-out: % cAMP activity (normalized to WT)): 86.4%
remaining activity at […] ([4]; TG6-129 log([M]) -6.10, read-out: % cAMP activity (normalized to WT)): 94.7%
remaining activity at 0.1585 µM ([4]; TG6-129 log([M]) -6.80, read-out: % cAMP activity (normalized to WT)): 90.5%
remaining activity at 0.03236 µM ([4]; TG6-129 log([M]) -7.49, read-out: % cAMP activity (normalized to WT)): 87.9%
remaining activity at 0.006457 µM ([4]; TG6-129 log([M]) -8.19, read-out: % cAMP activity (normalized to WT)): 104%
remaining activity at 0.001288 µM ([4]; TG6-129 log([M]) -8.89, read-out: % cAMP activity (normalized to WT)): 109%
remaining activity at 100 µM ([4]; read-out: % cAMP activity EP4 (normalized to Grapiprant), ligand log([M]) -4.00, single experiments 1st-3rd, Fig. S1A): 15.1%
remaining activity at […] ([4]; read-out: % cAMP activity EP4 (normalized to Grapiprant), ligand log([M]) -4.70, single experiments 1st-3rd, Fig. S1A): 25.9%
remaining activity at […] ([4]; read-out: % cAMP activity EP4 (normalized to Grapiprant), ligand log([M]) -5.40, single experiments 1st-3rd, Fig. S1A): 86.4%
remaining activity at […] ([4]; read-out: % cAMP activity EP4 (normalized to Grapiprant), ligand log([M]) -6.10, single experiments 1st-3rd, Fig. S1A): 94.7%
remaining activity at 0.1585 µM ([4]; read-out: % cAMP activity EP4 (normalized to Grapiprant), ligand log([M]) -6.80, single experiments 1st-3rd, Fig. S1A): 90.5%
remaining activity at 0.03236 µM ([4]; read-out: % cAMP activity EP4 (normalized to Grapiprant), ligand log([M]) -7.49, single experiments 1st-3rd, Fig. S1A): 87.9%
remaining activity at 0.006457 µM ([4]; read-out: % cAMP activity EP4 (normalized to Grapiprant), ligand log([M]) -8.19, single experiments 1st-3rd, Fig. S1A): 104%
remaining activity at 0.001288 µM ([4]; read-out: % cAMP activity EP4 (normalized to Grapiprant), ligand log([M]) -8.89, single experiments 1st-3rd, Fig. S1A): 109%
cAMP activity (∆pIC50 from EP4 WT) ([4]; TG6-129, WT, single experiments 1st-3rd): 0.138 and 0.074 and -0.140
IC50 [5]: 28.8 nM
remaining activity at 1 µM [5, 12]: 9.02%
remaining activity at 0.1 µM [5, 7]: 12.5%
remaining activity at 0.001 µM [5, 13]: 44.8%
remaining activity at 10 pM [5, 9]: 67.8%
remaining activity at 1 pM [5, 11]: 54.8%
cAMP activity (∆pIC50 from EP2 WT) ([5]; Mean): 0.475
cAMP activity (∆pIC50 from EP2 WT) ([5]; single experiments 1st-3rd): 0.478 and 0.360 and 0.586
IC50 [6]: 13500 nM
remaining activity at […] ([6]; 1 h, TG6-129 log([M]) -4.70, read-out: % cAMP activity (normalized to WT)): 26.1%
remaining activity at […] ([6]; 1 h, TG6-129 log([M]) -5.40, read-out: % cAMP activity (normalized to WT)): 66.6%
remaining activity at […] ([6]; 1 h, TG6-129 log([M]) -6.10, read-out: % cAMP activity (normalized to WT)): 66.9%
remaining activity at 0.1585 µM ([6]; 1 h, TG6-129 log([M]) -6.80, read-out: % cAMP activity (normalized to WT)): 68%
remaining activity at 0.03236 µM ([6]; 1 h, TG6-129 log([M]) -7.49, read-out: % cAMP activity (normalized to WT)): 66.5%
remaining activity at 0.006457 µM ([6]; 1 h, TG6-129 log([M]) -8.19, read-out: % cAMP activity (normalized to WT)): 70.4%
remaining activity at 0.001288 µM ([6]; 1 h, TG6-129 log([M]) -8.89, read-out: % cAMP activity (normalized to WT)): 68.8%
ΔpIC50 ([6]; PGE2 0.5 nM, pIC50 mutant - pIC50 WT, mean): -0.11 ± 0.05
cAMP activity (∆pIC50 from EP4 WT) ([6]; Mean): -0.111
cAMP activity (∆pIC50 from EP4 WT) ([6]; single experiments 1st-3rd): -0.105 and -0.202 and -0.027
Compound: CCc1nnc(NS(=O)(=O)c2ccc(NC(=S)NC(=O)/C=C/c3ccc(F)cc3)cc2)s1 [TG6-129]
